Literature values, collected in patent US20240358731A1, “SUMO PATHWAY AS AN OXYGEN SENSOR RELEVANT TO THE PATHOPHYSIOLOGY OF PULMONARY ARTERY HYPERTENSION AND CARDIAC ARRHYTHMIA” (Northeastern University, priority 2023, published 2024).

What was measured:
pfSENP1 = conditions: cited from earlier work
SENP1 mRNA = conditions: cited from earlier work

Row | SMILES | pfSENP1 inhibition (pfSENP1) | SENP1 mRNA levels (SENP1 mRNA)
1 | O=C(O)CN(NC(=O)c1ccc(CNC(=O)c2cccc(C(=O)O)c2)cc1)C(=O)[C@H]1O[C@@H]1C(=O)N(Cc1cccc2ccccc12)Cc1cccc2ccccc12 [JCP-666] | inhibitor | –
2 | CC(C)[C@]12O[C@H]1[C@@H]1O[C@]13[C@]1(O[C@H]1C[C@H]1C4=C(CC[C@@]13C)C(=O)OC4)[C@@H]2O [Triptolide] | – | decreased SENP1 mRNA levels
